Assay results: patent US11099177B2, “Protein kinase allostery sensor and methods of making and using same” (REGENTS OF THE UNIVERSITY OF MINNESOTA, priority 2016, dated 2021)
Where a chain is given by its changes, count along the chain named.

Experiments:
Aurora A (AurA) [1] = target: T1, Aurora A (AurA) (Homo sapiens, UniProt O14965, C290S/C393S/L225C/S284C); assay: Steady-state FRET ligand titration with FRET-labeled AurA; assay type: binding; conditions: ligand added to apo AurA, calculated from published R0
T1 construct: human Aurora A, residues 122-403, containing an N-terminal hexahistidine tag; hexahistidine (N); made in house; host or cells: E. coli BL21-DE3-RIL
T1 sequence (O14965 122-403 L225C/S284C/C290S/C393S): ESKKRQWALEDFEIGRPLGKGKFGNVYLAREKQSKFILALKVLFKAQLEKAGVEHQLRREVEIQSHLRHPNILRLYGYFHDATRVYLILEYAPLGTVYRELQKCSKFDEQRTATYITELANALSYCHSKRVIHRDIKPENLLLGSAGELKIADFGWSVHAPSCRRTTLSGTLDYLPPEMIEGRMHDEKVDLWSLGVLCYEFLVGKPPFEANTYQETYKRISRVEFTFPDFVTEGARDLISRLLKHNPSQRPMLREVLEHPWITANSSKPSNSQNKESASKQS
Experimental: (§1) ADP stocks (Sigma-Aldrich Corporation, St. Louis, Mo.) were dissolved at 100 mM in 1 M HEPES pH 7.5 and stored at −20° C.
(§2) Samples were excited at 490 nm and fluorescence emission was recorded 510 nm to 750 nm.
(§3) Ligand binding data were visualized and analyzed using Microsoft Excel and Origin software. FRET was calculated using the equation E=1−(DA/D), where E is the efficiency of FRET, DA is the fluorescence of the AurA+D+A sample, and D is the fluorescence of the corresponding AurA+D control sample.

Aurora A (AurA) [2] = assay: as above; assay type: binding, human; conditions: apo AurA, Alexa 488/Alexa 568
Experimental: as §1, §2, §3

Aurora A (AurA) [3] = target: T2, Aurora A (AurA) (Homo sapiens, UniProt O14965, C290S/C393S/L225C/T287C); assay: Time-resolved FRET ligand titration with labeled AurA (Example 1); assay type: binding; conditions: TR-FRET, ligand added to labeled AurA
T2 construct: human Aurora A, residues 122-403, containing an N-terminal hexahistidine tag; hexahistidine (N); made in house; host or cells: E. coli BL21-DE3-RIL
T2 sequence (O14965 122-403 L225C/T287C/C290S/C393S): T1 sequence (O14965 122-403 L225C/S284C/C290S/C393S) with C163S, T166C
Experimental: Direct waveform recording experiments were performed in a 384 well plate, and measurement was performed using a NovaFluor fluorescence lifetime plate reader (Fluorescence Innovations, Inc., Minneapolis, Minn.). […] Experiments were performed at 50 nM AurA in ADP Quest Assay buffer+1% DMSO.
TCSPC experiments were performed using a spectrometer built by the group of Dr. David D. Thomas. […] Experiments were performed at 100 nM to 200 nM AurA in ADP Quest Assay buffer+1% DMSO.

AurA = target: T3, AurA (Homo sapiens, UniProt O14965); conditions: FIG. 11; cited from earlier work
T3 sequence (O14965 1-403): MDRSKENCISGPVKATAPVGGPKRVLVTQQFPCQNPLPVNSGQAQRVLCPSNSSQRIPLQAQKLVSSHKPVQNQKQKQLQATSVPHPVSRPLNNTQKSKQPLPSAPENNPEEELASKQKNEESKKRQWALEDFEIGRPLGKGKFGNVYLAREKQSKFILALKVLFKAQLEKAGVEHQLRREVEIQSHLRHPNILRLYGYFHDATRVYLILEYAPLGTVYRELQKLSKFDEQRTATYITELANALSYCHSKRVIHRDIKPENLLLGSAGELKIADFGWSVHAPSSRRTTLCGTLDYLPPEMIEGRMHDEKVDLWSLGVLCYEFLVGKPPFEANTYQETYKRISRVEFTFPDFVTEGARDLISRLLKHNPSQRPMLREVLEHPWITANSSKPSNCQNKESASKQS

[4] = system: interaction between AurA and the oncoprotein MYC; conditions: cited from earlier work
p53-altered liver cancer = conditions: mice; cited from earlier work
Aurora A (AurA) [5] = assay: Time-resolved FRET lifetime assay, AurA biosensor labeled at L225C/S284C, 384-well plates; conditions: for DFG-In/DFG-Out state of AurA on inhibitor binding / inter-probe distance: 5 μM inhibitor; for DFG-In/DFG-Out state of AurA on inhibitor binding: samples lacking TPX2; for inter-probe distance: samples lacking TPX2 (phosphorylated and unphosphorylated AurA)
Aurora A (AurA) [6] = target: T4, Aurora A (AurA) (Homo sapiens, UniProt O14965, C290S/C393S/L225C/S284C); assay: as above; conditions: 5 μM inhibitor, unphosphorylated AurA bound to TPX2
T4 sequence (O14965 122-403 L225C/S284C/C290S/C393S): T1 sequence (O14965 122-403 L225C/S284C/C290S/C393S)
T4 sequence (Q9ULW0 1-43 partner): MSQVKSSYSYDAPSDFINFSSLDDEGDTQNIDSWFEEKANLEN

DFG-In/DFG-Out state of AurA on inhibitor binding (Aurora A (AurA) [5])	Molecule	change in FRET on addition of ligand (Aurora A (AurA) [2])	inter-probe distance (Aurora A (AurA) [5])	other results
DFG-Out state	Cc1cc(Nc2cc(N3CCN(C)CC3)nc(Sc3ccc(NC(=O)C4CC4)cc3)n2)n[nH]1 [VX-680]	no observable change	~30 Å	
DFG-In state	CCc1cccc(CC)c1NC(=O)N1Cc2n[nH]c(NC(=O)c3ccc(N4CCN(C)CC4)cc3)c2C1 [PHA-680632]		long distances	
DFG-In state	COc1cc(N2CCC(N3CCN(C)CC3)CC2)ccc1Nc1ncc(Cl)c(Nc2ccccc2S(=O)(=O)C(C)C)n1 [TAE-684]		long distances	

The next lines start with the molecule.

Molecule	DFG-In/DFG-Out state of AurA on inhibitor binding (Aurora A (AurA) [5])	change in FRET on addition of ligand (Aurora A (AurA) [2])	inter-probe distance (Aurora A (AurA) [5])	other results
Nc1ncnc2c1ncn2[C@@H]1O[C@H](COP(=O)(O)OP(=O)(O)O)[C@@H](O)[C@H]1O [ADP]		reduce FRET		increase in population average R (donor-acceptor distance) (Aurora A (AurA) [1]): approximately 3 Å; change in average fluorescence lifetime (Aurora A (AurA) [3]): increase in average fluorescence lifetime
O=C(O)c1ccc(Nc2ncc3c(n2)-c2ccc(Cl)cc2C(c2c(F)cccc2F)=NC3)cc1 [MLN-8054]	DFG-Out state			AurA state in the X-ray structure with bound inhibitor (AurA): DFG-Out state; effect on the AurA-MYC interaction [4]: disrupt; treatment outcome (p53-altered liver cancer): successful treatment
TPX2: AurA-specific activator peptide, synthetic construct of human TPX2 residues 1-43 (MSQVKSSYSYDAPSDFINFSSLDDEGDTQNIDSWFEEKANLEN; UniProt Q9ULW0 1-43, looked up, fragment)		reduces FRET		width of the distance distribution (full width at half maximum) (Aurora A (AurA) [5]; in the presence of TPX2, no inhibitor): narrow significantly; inter-dye distance (Aurora A (AurA) [5]; in the presence of TPX2, no inhibitor, unphosphorylated and phosphorylated samples (approximately 30 Å without TPX2)): approximately 50 Å
O=C(Nc1cccc(Cl)c1)Nc1ncc(CCNc2ncnc3ccsc23)s1 [SNS-314]			long distances	
CO[C@@H](C(=O)N1Cc2n[nH]c(NC(=O)c3ccc(N4CCN(C)CC4)cc3)c2C1)c1ccccc1 [Danusertib]	DFG-Out state		~30 Å	AurA state in the X-ray structure with bound inhibitor (AurA): DFG-Out state; inter-probe distance relative to DFG-In compounds (Aurora A (AurA) [6]): slightly shorter distances
